Laboratory results from patent publication US6858588B2, “Nitrile glycoside useful as a bioenhancer of drugs and nutrients, process of its isolation from moringa oleifera” (Council of Scientific and Industrial Research, priority 2003, dated 2005).

Experiments:
[1] = anaesthetized rat, 1-10 mg/kg I.V; cited from earlier work
[2] = system: M. smegmatis (MC^2 155); experiment: Bioactivity enhancement of antibiotics (killing, broth/titre assay) against M. smegmatis; type: cell-based, Mycobacterium smegmatis; conditions: Table 5
[3] = system: B. subtilis (MTCC121); experiment: Bioactivity enhancement of antibiotics (killing, broth/titre assay) against B. subtilis; type: cell-based, Bacillus subtilis; conditions: Table 5
[4] = system: E. coli (CA8000); experiment: Bioactivity enhancement of antibiotics (killing, broth/titre assay) against E. coli
[5] = system: C. albicans; experiment: Enhancement of anticandidial activity of clotrimazole, broth assay
[6] = Bioavailability test using gastro-intestinal epithelium (U-tube); type: in vitro ADME, goat; conditions: in combination; FIG. 3
From the text: Specially designed U-tubes of glass consisting of two components (opposite-L type) were used in which one open end of an L-shaped was tapered to fit within the end of the other L-tube (as described in U.S. Pat. No. 6,410,059). The membrane of goat gut (initial part) was stretched and fixed to act as the barrier between the two ends such that by joining the two L-tubes, a U-tube was made. Sterile distilled water was then filled in both the sides to equal height/level. The antibiotic/compound was added to the donor tube (tapered) and through spectro-photometer, the transfer of molecule was observed using UV and visible absorption maxima of the respective molecules by taking the OD at defined wavelengths (264 nm for isoniazid).

[7] = system: E. coli CA8000; experiment: Enhancement of bacterial transformation with pUC18 plasmid DNA, CA8000
Experimental: (§1) Overnight grown bacterial E. coli DH5α (Sambrook at al^28) cells were diluted to 10 folds in growth medium and treated with niaziridin @1-10 μg/ml for 4 hours at 37° C. in a shaker (200 RPM).
(§2) These log phase cells were then treated with calcium chloride to induce competence and then transformed with pUC18 plasmid DNA and plated on Luria agar plates containing 100 μg/ml ampicillin.

[8] = system: E. coli cells (CA 8000), λ phage; experiment: λ phage adsorption on E. coli cells; conditions: Cells pretreated with niaziridin @ 1 ug/ml
Experimental: Overnight grown bacterial culture (Escherichia coli, CA 8000) was divided into 5 ml of aliquot each in screw cap tubes. One of the tube with the bacterial culture was treated with niaziridin to a final concentration of 1 μg/ml. Both the control and the treated tubes were incubated at 37° C. for 4 hours. The cultures were then infected with λ phage (MOI=10) for 10 minutes at 37° C. (for adsorption) followed by centrifugation at 10000 RPM for 10 minutes at 4° C.
The supernatant and the pellets for both treated and untreated cultures were then compared for the phage titer by plating on top agar containing sensitive bacteria at different dilutions.

[9] = system: E. coli DH5α; experiment: Enhancement of bacterial transformation with pUC18 plasmid DNA, DH5α
Experimental: as §1, §2

[10] = system: M.tuberculosis H37Rv (ATCC 27294); experiment: Bioactivity enhancement of anti-tubercular drugs, radiometric BACTEC 460 TB system; type: cell-based, Mycobacterium tuberculosis; conditions: BACTEC 460, 12 days
[11] = human volunteers; formulation containing rifampicin, pyrazinamide and isoniazid; cited from earlier work
[12] = Amp (0.1) + Niaziridin 1.0 μg/ml
[13] = Nal (1.0) + Niaziridin 1.0 μg/ml
[14] = Rif (0.05) + Niaziridin 1.0 μg/ml
[15] = Tet (2.0) + Niaziridin 1.0 μg/ml
[16] = Cells pretreated with niaziridin at 1 ug/ml
[17] = Cells pretreated with niaziridin at 10 ug/ml
[18] = Amp (0.01) + Niaziridin 1.0 μg/ml
[19] = Nal (2.0) + Niaziridin 1.0 μg/ml
[20] = Tet (1.0) + Niaziridin 1.0 μg/ml
[21] = Table 4, Amp 6 μg/ml + Niaziridin 0.1 μg/ml
[22] = Table 4, Nal 6 μg/ml + Niaziridin 0.1 μg/ml
[23] = Table 4, Rif 20 μg/ml + Niaziridin 0.1 μg/ml
[24] = Table 4, Rif 30 μg/ml + Niaziridin 0.1 μg/ml
[25] = Table 4, Tet 1 μg/ml + Niaziridin 0.1 μg/ml
[26] = Table 4, Tet 2 μg/ml + Niaziridin 0.1 μg/ml

Compound: niaziminin B
- Hypotensive and bradycardiac effect [1]: produced hypotensive and bradycardiac effect

Compound: CCOC(=S)NCc1ccc(OC2OC(C)C(O)C(O)C2O)cc1 (centres unmarked) [niazimicin]
- Hypotensive and bradycardiac effect [1]: produced hypotensive and bradycardiac effect

Compound: CC1(C)S[C@@H]2[C@H](NC(=O)[C@H](N)c3ccccc3)C(=O)N2[C@H]1C(=O)O [Amp, ampicillin, reference compound]
- % Survival ([2]; Amp (0.1) alone): 25.0%
- Titre ([2]; Amp (0.1) alone): 1.0 × 10^8
- % Survival ([3]; Amp (0.01) alone): 72.5%
- Titre ([3]; Amp (0.01) alone): 2.9 × 10^8
- % Survival ([4]; Table 4, Amp 6 μg/ml alone): 3.69%
- Titre ([4]; Table 4, Amp 6 μg/ml alone): 8.5 × 10^6

Compound: CN(C)[C@@H]1C(=O)C(C(N)=O)=C(O)[C@@]2(O)C(=O)C3=C(O)c4c(O)cccc4[C@@](C)(O)[C@H]3C[C@@H]12 [Tet, tetracycline, reference compound]
- % Survival ([2]; Tet (2.0) alone): 30.0%
- Titre ([2]; Tet (2.0) alone): 1.2 × 10^8
- % Survival ([3]; Tet (1.0) alone): 17.5%
- Titre ([3]; Tet (1.0) alone): 7.0 × 10^7
- % Survival ([4]; Table 4, Tet 1 μg/ml alone): 1.16%
- Titre ([4]; Table 4, Tet 1 μg/ml alone): 7.0 × 10^6
- % Survival ([4]; Table 4, Tet 2 μg/ml alone): 0.58%
- Titre ([4]; Table 4, Tet 2 μg/ml alone): 3.5 × 10^6

Compound: niaziminin A
- Hypotensive and bradycardiac effect [1]: produced hypotensive and bradycardiac effect

Compound: CCn1cc(C(=O)O)c(=O)c2ccc(C)nc21 [Nal, nalidixic acid, reference compound]
- % Survival ([2]; Nal (1.0) alone): 92.5%
- Titre ([2]; Nal (1.0) alone): 3.7 × 10^8
- % Survival ([3]; Nal (2.0) alone): 7.75%
- Titre ([3]; Nal (2.0) alone): 3.1 × 10^7
- % Survival ([4]; Table 4, Nal 6 μg/ml alone): 1.0%
- Titre ([4]; Table 4, Nal 6 μg/ml alone): 6.0 × 10^6

Compound: Clc1ccccc1C(c1ccccc1)(c1ccccc1)n1ccnc1 [Clotrimazole, clotrimazole, reference compound]
- Cfu/ml at 36 h ([5]; Clotrimazole alone 0.5 ug/ml): 23.6 × 10^5 Cfu/ml

Compound: COC(=S)NCc1ccc(O[C@@H]2O[C@@H](C)[C@H](O)[C@@H](O)[C@H]2O)cc1 [niazinin A]
- Hypotensive and bradycardiac effect [1]: produced hypotensive and bradycardiac effect

Compound: niazinin B
- Hypotensive and bradycardiac effect [1]: produced hypotensive and bradycardiac effect

Compound: CC1OC(Oc2ccc(CC#N)cc2O)C(O)C(O)C1O (centres unmarked) [Niaziridin, NIAZIRIDIN]
- % Survival [2, 12]: 5.25%
- Folds enhancement in killing [2, 12]: 4.7 folds
- Titre [2, 12]: 2.1 × 10^7
- % Survival [2, 13]: 75.0%
- Folds enhancement in killing [2, 13]: 1.2 folds
- Titre [2, 13]: 3.0 × 10^8
- % Survival [2, 14]: 16.75%
- Folds enhancement in killing [2, 14]: 1.9 folds
- Titre [2, 14]: 6.7 × 10^6
- % Survival [2, 15]: 7.5%
- Folds enhancement in killing [2, 15]: 4.0 folds
- Titre [2, 15]: 3.0 × 10^7
- Uptake of nutrients like Vitamine B12 through the intestinal gut membrane [6]: able to facilitate the uptake
- Fold enhancement in DNA transformation [7, 16]: 1.9 fold
- Titre (transformants) [7, 16]: 8.30 10^3
- Fold enhancement in DNA transformation [7, 17]: 5.5 fold
- Titre (transformants) [7, 17]: 24.0 10^3
- Phage titer, Pellet ([8]; MOI 5): 7.7 10^7 pfu
- Phage titer, Supernatant ([8]; MOI 5): 7.7 10^7 pfu
- Phage titer, Pellet ([8]; MOI 10): 18.0 10^7 pfu
- Phage titer, Supernatant ([8]; MOI 10): 8.0 10^7 pfu
- % Survival [3, 18]: 14.2%
- Folds enhancement in killing [3, 18]: 5.1 folds
- Titre [3, 18]: 5.7 × 10^7
- % Survival [3, 19]: 1.1%
- Folds enhancement in killing [3, 19]: 7.0 folds
- Titre [3, 19]: 4.6 × 10^6
- % Survival [3, 14]: 2.7%
- Folds enhancement in killing [3, 14]: 19.4 folds
- Titre [3, 14]: 1.1 × 10^7
- % Survival [3, 20]: 5.0%
- Folds enhancement in killing [3, 20]: 3.5 folds
- Titre [3, 20]: 2.0 × 10^7
- Enhancement of activity of rifampicin, ampicillin, nalidixic acid ([3]; range over both Gram (+) strains (B. subtilis and M. smegmatis)): 1.2-19 folds
- Fold enhancement in DNA transformation [9, 16]: 1.9 fold
- Titre (transformants) [9, 16]: 16.0 10^4
- Fold enhancement in DNA transformation [9, 17]: 2.3 fold
- Titre (transformants) [9, 17]: 20.0 10^4
- Cfu/ml at 36 h ([5]; Clotrimazole 0.5 ug/ml + Niaziridin 10 ug/ml): 4.5 × 10^5 Cfu/ml
- Fold enhancement of lethal activity ([5]; Clotrimazole 0.5 ug/ml + Niaziridin 10 ug/ml, 36 h): 5.2 fold
- Enhancement of antimycobacterial activity of rifampicin (Growth Index) ([10]; FIG. 1): able to enhance
- Enhancement of antimycobacterial activity of isoniazid (Growth Index) ([10]; FIG. 2): able to enhance
- % Survival [4, 21]: 0.69%
- Fold enhancement in killing over antibiotic alone [4, 21]: 5.3 fold
- Titre [4, 21]: 1.6 × 10^6
- % Survival [4, 22]: 0.02%
- Fold enhancement in killing over antibiotic alone [4, 22]: 50.0 fold
- Titre [4, 22]: 1.2 × 10^5
- % Survival [4, 23]: 0.0035%
- Fold enhancement in killing over antibiotic alone [4, 23]: 38.8 fold
- Titre [4, 23]: 3.9 × 10^3
- % Survival [4, 24]: 0.003%
- Fold enhancement in killing over antibiotic alone [4, 24]: 12.6 fold
- Titre [4, 24]: 3.0 × 10^3
- % Survival [4, 25]: 0.5%
- Fold enhancement in killing over antibiotic alone [4, 25]: 2.3 fold
- Titre [4, 25]: 3.0 × 10^6
- % Survival [4, 26]: 0.11%
- Fold enhancement in killing over antibiotic alone [4, 26]: 5.2 fold
- Titre [4, 26]: 7.5 × 10^5
- Enhancement of activity of commonly used antibiotics (rifampicin, tetracycline, nalidixic acid etc) ([4]; text summary of Table 4): enhanced activity

Compound: O=C(/C=C/C=C/c1ccc2c(c1)OCO2)N1CCCCC1 [piperine]
- Comparative levels and peak concentration of the drugs in the presence of piperine [11]: higher

Compound: CO[C@H]1/C=C/O[C@@]2(C)Oc3c(C)c(O)c4c(O)c(c(/C=N/N5CCN(C)CC5)c(O)c4c3C2=O)NC(=O)/C(C)=C\C=C\[C@H](C)[C@H](O)[C@@H](C)[C@@H](O)[C@@H](C)[C@H](OC(C)=O)[C@@H]1C [Rif, rifampicin]
- % Survival ([2]; Rif (0.05) alone): 32.5%
- Titre ([2]; Rif (0.05) alone): 1.3 × 10^7
- % Survival ([3]; Rif (0.05) alone): 52.5%
- Titre ([3]; Rif (0.05) alone): 2.1 × 10^8
- % Survival ([4]; Table 2, Rif 20 μg/ml alone): 24.2%
- Titre ([4]; Table 2, Rif 20 μg/ml alone): 3.4 × 10^7
- % Survival ([4]; Table 2, Rif 30 μg/ml alone): 21.4%
- Titre ([4]; Table 2, Rif 30 μg/ml alone): 3.0 × 10^7
- % Survival ([4]; Table 3, Rif 20 μg/ml alone): 40.0%
- Titre ([4]; Table 3, Rif 20 μg/ml alone): 1.00 × 10^8
- % Survival ([4]; Table 3, Rif 30 μg/ml alone): 23.3%
- Titre ([4]; Table 3, Rif 30 μg/ml alone): 5.81 × 10^7
- % Survival ([4]; Table 4, Rif 20 μg/ml alone): 0.0136%
- Titre ([4]; Table 4, Rif 20 μg/ml alone): 1.5 × 10^4
- % Survival ([4]; Table 4, Rif 30 μg/ml alone): 0.038%
- Titre ([4]; Table 4, Rif 30 μg/ml alone): 3.8 × 10^4
